Assay results from US20050197350A1, “Novel quinoline, tetrahydroquinazoline, and pyrimidine derivatives and methods of treatment related to the use thereof” (TAISHO PHARMACEUTICAL CO., LTD., priority 2003, published 2005).

Each compound was assayed on MCH receptors (assay: MCH receptor activity class (method not given)). Conditions: MCH receptor activity class 1-3 (percent of control at 10^-7 M or IC50).

**Q.** How did the class turn out when `CN(C)c1cc(N[C@H]2CC[C@@H](CNC(=O)Nc3c(F)cc(Br)cc3Br)CC2)nc2ccccc12` [compound 2371, N-(2,4-dibromo-6-fluorophenyl)-N′-[(cis-4-{[4-(dimethylamino)quinolin-2-yl]amino}cyclohexyl)methyl]urea] was run?
**A.** The class was 1 (Class 1: The value of percent of control at 10^−7 M was less than 40% or the value of IC50 was less than 50 nM.).

**Q.** `CCOc1ccccc1NC(=S)N[C@H]1CC[C@@H](Nc2nccc(N(C)C)n2)CC1` [compound 2347] was tested. Which class did it give?
**A.** Its class is 3 (Class 3 The value of percent of control at 10^−7 M was more than 60% or the value of IC50 was more than 200 nM.).

**Q.** With `Cc1ccc([N+](=O)[O-])c(NC(=O)NC[C@H]2CC[C@@H](Nc3nccc(N(C)C)n3)CC2)c1C` [compound 2443] as the compound, how does the class read?
**A.** Its class is 1 (Class 1: The value of percent of control at 10^−7 M was less than 40% or the value of IC50 was less than 50 nM.).

**Q.** With `CN(C)c1cc(N[C@H]2CC[C@@H](CNC(=O)Nc3ccccc3C(C)(C)C)CC2)nc2ccccc12` [compound 2384] as the compound, how does the class read?
**A.** Its class is 1 (Class 1: The value of percent of control at 10^−7 M was less than 40% or the value of IC50 was less than 50 nM.).

Same assay, conditions: MCH receptor; class by percent of control at 10^-7 M or IC50

**Q.** `CN(C)c1cc(N[C@H]2CC[C@@H](NC(=O)c3ccccc3)CC2)nc2ccccc12` [compound 93] was tested. Which class did it give?
**A.** Its class is 3 (Class 3 The value of percent of control at 10^−7 M was more than 60% or the value of IC50 was more than 200 nM.).

**Q.** `Cc1cc(C(=O)NC[C@H]2CC[C@@H](Nc3cc(N(C)C)c4ccccc4n3)CC2)c(C)o1` [compound 198, N-[(cis-4-{[4-(dimethylamino)quinolin-2-yl]amino}cyclohexyl)methyl]-2,5-dimethyl-3-furamide] was tested. Which class did it give?
**A.** The class was 3 (Class 3 The value of percent of control at 10^−7 M was more than 60% or the value of IC50 was more than 200 nM.).

**Q.** How did the class turn out when `CN(C)c1cc(N[C@H]2CC[C@@H](NC(=O)c3ccc(C#N)cc3)CC2)nc2ccccc12` [compound 77] was run?
**A.** Its class is 3 (Class 3 The value of percent of control at 10^−7 M was more than 60% or the value of IC50 was more than 200 nM.).

**Q.** How did the class turn out when `Cc1ccc(C(=O)N[C@H]2CC[C@@H](Nc3cc(N(C)C)c4ccccc4n3)CC2)cc1[N+](=O)[O-]` [compound 43, N-(cis-4-{[4-(dimethylamino)quinolin-2-yl]amino}cyclohexyl)-4-methyl-3-nitrobenzamide] was run?
**A.** The class was 2 (Class 2: The value of percent of control at 10^−7 M was from 40% to 60% or the value of IC′50 was from 50 nM to 200 nM.).

Same assay, conditions: activity class per percent of control at 10^-7 M or IC50

**Q.** For `COc1ccc2[nH]cc(CN[C@H]3CC[C@@H](Nc4cc(N(C)C)c5ccccc5n4)CC3)c2c1` [compound 1090], which class is on record?
**A.** Its class is 3 (Class 3 The value of percent of control at 10^−7 M was more than 60% or the value of IC50 was more than 200 nM.).

**Q.** For `Cc1cc(C(=O)NC[C@H]2CC[C@@H](Nc3nc4c(c(N(C)C)n3)CCCC4)CC2)ccc1[N+](=O)[O-]` [compound 1076], which class is on record?
**A.** Its class is 3 (Class 3 The value of percent of control at 10^−7 M was more than 60% or the value of IC50 was more than 200 nM.).

**Q.** Which class does the source give for `COc1cc(CC(=O)N[C@H]2CC[C@@H](Nc3nc4c(c(N(C)C)n3)CCCC4)CC2)cc(OC)c1` [compound 978] here?
**A.** Its class is 3 (Class 3 The value of percent of control at 10^−7 M was more than 60% or the value of IC50 was more than 200 nM.).

Same assay, conditions: class 1-3 by percent of control at 10^-7 M or IC50

**Q.** With `Cc1cc(C(=O)NC[C@H]2CC[C@@H](Nc3nccc(N(C)C)n3)CC2)c(C(F)(F)F)o1` [compound 415] as the compound, how does the class read?
**A.** The class was 3 (Class 3 The value of percent of control at 10^−7 M was more than 60% or the value of IC50 was more than 200 nM.).

**Q.** Which class does the source give for `CN(C)c1nc(N[C@H]2CC[C@@H](NC(=O)CCCOc3ccccc3)CC2)nc2c1CCCC2` [compound 556] here?
**A.** Its class is 3 (Class 3 The value of percent of control at 10^−7 M was more than 60% or the value of IC50 was more than 200 nM.).

**Q.** For `Cc1cccc(C(=O)N[C@H]2CC[C@@H](Nc3nc4c(c(N(C)C)n3)CCCC4)CC2)c1` [compound 486], which class is on record?
**A.** Its class is 1 (Class 1: The value of percent of control at 10^−7 M was less than 40% or the value of IC50 was less than 50 nM.).

**Q.** How did the class turn out when `CN(C)c1ccnc(N[C@H]2CC[C@@H](CNC(=O)c3ccccc3Br)CC2)n1` [compound 438] was run?
**A.** The class was 3 (Class 3 The value of percent of control at 10^−7 M was more than 60% or the value of IC50 was more than 200 nM.).

Same assay, conditions: class by percent of control at 10^-7 M or IC50

**Q.** With `CN(C)c1ccnc(N[C@H]2CC[C@@H](NC(=O)c3ccc(C#N)cc3)CC2)n1` [compound 295] as the compound, how does the class read?
**A.** The class was 3 (Class 3 The value of percent of control at 10^−7 M was more than 60% or the value of IC50 was more than 200 nM.).

**Q.** For `CN(C)c1cc(N[C@H]2CC[C@@H](NC(=O)c3ccc(-c4ccc(Cl)cc4)o3)CC2)nc2ccccc12` [compound 697], which class is on record?
**A.** Its class is 3 (Class 3 The value of percent of control at 10^−7 M was more than 60% or the value of IC50 was more than 200 nM.).

**Q.** For `CN(C)c1nc(N[C@H]2CC[C@@H](NC(=O)C(c3ccc(Cl)cc3)c3ccc(Cl)cc3)CC2)nc2c1CCCC2` [compound 962], which class is on record?
**A.** Its class is 1 (Class 1: The value of percent of control at 10^−7 M was less than 40% or the value of IC50 was less than 50 nM.).

**Q.** Which class does the source give for `CN(C)c1nc(N[C@H]2CC[C@@H](CNC(=O)c3cccc(Cl)c3F)CC2)nc2c1CCCC2` [compound 621] here?
**A.** Its class is 3 (Class 3 The value of percent of control at 10^−7 M was more than 60% or the value of IC50 was more than 200 nM.).

**Q.** For `COc1cccc2cc(C(=O)N[C@H]3CC[C@@H](Nc4cc(N(C)C)c5ccccc5n4)CC3)oc12` [compound 782], which class is on record?
**A.** Its class is 3 (Class 3 The value of percent of control at 10^−7 M was more than 60% or the value of IC50 was more than 200 nM.).

**Q.** How did the class turn out when `COc1ccc(CC(=O)NC[C@H]2CC[C@@H](Nc3nc4c(c(N(C)C)n3)CCCC4)CC2)cc1` [compound 631] was run?
**A.** The class was 1 (Class 1: The value of percent of control at 10^−7 M was less than 40% or the value of IC50 was less than 50 nM.).

**Q.** For `CN(C)c1ccnc(N[C@H]2CC[C@@H](NC(=O)c3ccc4ncsc4c3)CC2)n1` [compound 918], which class is on record?
**A.** The class was 3 (Class 3 The value of percent of control at 10^−7 M was more than 60% or the value of IC50 was more than 200 nM.).

**Q.** With `COc1cc(CNC[C@H]2CC[C@@H](Nc3nccc(N(C)C)n3)CC2)cc2c1OCO2` [compound 1309] as the compound, how does the class read?
**A.** Its class is 1 (Class 1: The value of percent of control at 10^−7 M was less than 40% or the value of IC50 was less than 50 nM.).

**Q.** With `CN(C)c1cc(N[C@H]2CC[C@@H](NC(=O)c3cccc(C(=O)c4ccccc4)c3)CC2)nc2ccccc12` [compound 733] as the compound, how does the class read?
**A.** The class was 3 (Class 3 The value of percent of control at 10^−7 M was more than 60% or the value of IC50 was more than 200 nM.).

**Q.** Which class does the source give for `Cc1ccc2occ(CN[C@H]3CC[C@@H](Nc4nc5c(c(N(C)C)n4)CCCC5)CC3)c(=O)c2c1` [compound 1348] here?
**A.** Its class is 3 (Class 3 The value of percent of control at 10^−7 M was more than 60% or the value of IC50 was more than 200 nM.).

**Q.** `Cc1cc(Cl)ccc1NC(=O)N[C@H]1CC[C@@H](Nc2nccc(N(C)C)n2)CC1` [compound 2244, N-(4-chloro-2-methylphenyl)-N′-(cis-4-{[4-(dimethylamino)pyrimidin-2-yl]amino}cyclohexyl)urea] was tested. Which class did it give?
**A.** Its class is 2 (Class 2: The value of percent of control at 10^−7 M was from 40% to 60% or the value of IC′50 was from 50 nM to 200 nM.).

**Q.** Which class does the source give for `COc1ccc(NC(=O)N[C@H]2CC[C@@H](Nc3nccc(N(C)C)n3)CC2)c(C)c1` [compound 2246] here?
**A.** The class was 3 (Class 3 The value of percent of control at 10^−7 M was more than 60% or the value of IC50 was more than 200 nM.).

**Q.** Which class does the source give for `Cc1c(C)c(C)c(CNC2CCC(Nc3nc4c(c(N(C)C)n3)CCCC4)CC2)c(C)c1C` (stereo not drawn) [compound 1485] here?
**A.** Its class is 2 (Class 2: The value of percent of control at 10^−7 M was from 40% to 60% or the value of IC′50 was from 50 nM to 200 nM.).

**Q.** With `Cc1ccc(C(=O)NC[C@H]2CC[C@@H](Nc3nccc(N(C)C)n3)CC2)c(F)c1F` [compound 405] as the compound, how does the class read?
**A.** Its class is 3 (Class 3 The value of percent of control at 10^−7 M was more than 60% or the value of IC50 was more than 200 nM.).

**Q.** With `Cc1cc(C)c(CNC[C@H]2CC[C@@H](Nc3cc(N(C)C)c4ccccc4n3)CC2)c(C)c1` [compound 1181] as the compound, how does the class read?
**A.** The class was 3 (Class 3 The value of percent of control at 10^−7 M was more than 60% or the value of IC50 was more than 200 nM.).

**Q.** How did the class turn out when `CN(C)c1nc(N[C@H]2CC[C@@H](NC(=O)NCc3ccc(Cl)c(Cl)c3)CC2)nc2c1CCCC2` [compound 1867] was run?
**A.** The class was 3 (Class 3 The value of percent of control at 10^−7 M was more than 60% or the value of IC50 was more than 200 nM.).

**Q.** Which class does the source give for `COc1ccc(NC(=S)N[C@H]2CC[C@@H](Nc3nc4c(c(N(C)C)n3)CCCC4)CC2)c(C)c1` [compound 1776] here?
**A.** Its class is 2 (Class 2: The value of percent of control at 10^−7 M was from 40% to 60% or the value of IC′50 was from 50 nM to 200 nM.).

**Q.** With `CCCc1c(CNC[C@H]2CC[C@@H](Nc3nc4c(c(N(C)C)n3)CCCC4)CC2)cnn1-c1ccc(Cl)cc1` [compound 1511] as the compound, how does the class read?
**A.** Its class is 1 (Class 1: The value of percent of control at 10^−7 M was less than 40% or the value of IC50 was less than 50 nM.).

**Q.** With `Cc1cc(C)c2occ(CN[C@H]3CC[C@@H](Nc4nc5c(c(N(C)C)n4)CCCC5)CC3)c(=O)c2c1` [compound 1350] as the compound, how does the class read?
**A.** Its class is 2 (Class 2: The value of percent of control at 10^−7 M was from 40% to 60% or the value of IC′50 was from 50 nM to 200 nM.).

**Q.** `CN(C)c1ccnc(N[C@H]2CC[C@@H](NC(=O)[C@H](Cc3cn(Cc4ccccc4)cn3)NC(=O)OC(C)(C)C)CC2)n1` [compound 848] was tested. Which class did it give?
**A.** Its class is 3 (Class 3 The value of percent of control at 10^−7 M was more than 60% or the value of IC50 was more than 200 nM.).

**Q.** For `CN(C)c1nc(N[C@H]2CC[C@@H](CNC(=O)c3cccc4c3-c3ccccc3C4=O)CC2)nc2c1CCCC2` [compound 661], which class is on record?
**A.** The class was 3 (Class 3 The value of percent of control at 10^−7 M was more than 60% or the value of IC50 was more than 200 nM.).

Same assay, conditions: class by percent of control at 10^−7 M or IC50

**Q.** Which class does the source give for `Cc1cnc(NC[C@H]2CC[C@@H](NC(=O)c3ccc(F)c(F)c3)CC2)nc1N(C)C` [compound 2714] here?
**A.** The class was 3 (Class 3 The value of percent of control at 10^−7 M was more than 60% or the value of IC50 was more than 200 nM.).

**Q.** `Cc1nc(N[C@H]2CC[C@@H](NC(=O)c3cccc(OC(F)(F)F)c3)CC2)nc(N(C)C)c1C` [compound 2856] was tested. Which class did it give?
**A.** Its class is 1 (Class 1: The value of percent of control at 10^−7 M was less than 40% or the value of IC50 was less than 50 nM.).

**Q.** For `Cc1cnc(N[C@H]2CC[C@@H](NC(=O)N(C)c3cccc(F)c3)CC2)nc1N(C)C` [compound 3025, N′-(cis-4-{[4-(dimethylamino)-5-methylpyrimidin-2-yl]amino}cyclohexyl)-N-(3-fluorophenyl)-N-methylurea], which class is on record?
**A.** The class was 1 (Class 1: The value of percent of control at 10^−7 M was less than 40% or the value of IC50 was less than 50 nM.).
